{
  "source": "ChEMBL document CHEMBL5532691",
  "about": "“Anti-cancer activity and mechanism of flurbiprofen organoselenium compound RY-1-92 in non-small cell lung cancer” (RSC Med Chem, 2024)",
  "key": {"A549 [1]": {"tested_on": "A549", "test": "Downregulation of AKT phosphorylation expression in human A549 cells at 10 to 30 uM by Western blot analysis", "assay_type": "functional, cell-based", "details": "dose 10-30 µM"}, "A549 [2]": {"tested_on": "A549", "test": "Induction of cell cycle arrest in human A549 cells assessed as accumulation of cells as G1 phase at 10 uM measured after 24 hrs by propidium iodide staining based flow cytometry analysis (reference value: 71.74%)", "assay_type": "functional"}, "A549 [3]": {"tested_on": "A549", "test": "Induction of apoptosis in human A549 cells assessed as viable cells at 10 uM measured after 48 hrs by annexin V-FITC/PI staining based flow cytometry analysis (reference value: 80.26%)", "assay_type": "functional", "details": "read-out: Activity"}, "NCI-H460 [4]": {"tested_on": "NCI-H460", "test": "Induction of cell cycle arrest in human NCI-H460 cells assessed as accumulation of cells as G1 phase at 30 uM measured after 24 hrs by propidium iodide staining based flow cytometry analysis (reference value: 84.54%)", "assay_type": "functional"}, "A549 [5]": {"tested_on": "A549", "test": "Upregulation of Bax protein expression in human A549 cells at 10 to 30 uM by Western blot analysis", "assay_type": "functional, cell-based", "details": "dose 10-30 µM"}, "A549 [6]": {"tested_on": "A549", "test": "Induction of cell cycle arrest in human A549 cells assessed as accumulation of cells as G2 phase at 10 uM measured after 24 hrs by propidium iodide staining based flow cytometry analysis (reference value: 8.69%)", "assay_type": "functional"}, "A549 [7]": {"tested_on": "A549", "test": "Induction of cell cycle arrest in human A549 cells assessed as accumulation of cells as S phase at 30 uM measured after 24 hrs by propidium iodide staining based flow cytometry analysis (reference value: 19.57%)", "assay_type": "functional"}, "NCI-H460 [8]": {"tested_on": "NCI-H460", "test": "Induction of apoptosis in human NCI-H460 cells assessed as necrotic cells at 30 uM measured after 48 hrs by annexin V-FITC/PI staining based flow cytometry analysis (reference value: 2.47%)", "assay_type": "functional"}, "Lewis lung carcinoma [9]": {"tested_on": "Lewis lung carcinoma", "test": "Antitumor activity against mouse Lewis lung carcinoma cell line xenografted in C57BL/6 mouse model assessed as downregulation of cyclin B1 expression at 10 to 20 mg/kg by Western blot analysis", "assay_type": "functional, organism-based", "details": "dose 10-20 mg/kg"}, "NCI-H460 [10]": {"tested_on": "NCI-H460", "test": "Induction of apoptosis in human NCI-H460 cells assessed as viable cells at 10 uM measured after 48 hrs by annexin V-FITC/PI staining based flow cytometry analysis (reference value: 91.81%)", "assay_type": "functional", "details": "read-out: Activity"}, "A549 [11]": {"tested_on": "A549", "test": "Antiproliferative activity against human A549 cells assessed as inhibition of cell growth incubated for 48 hrs by MTT assay", "assay_type": "functional, cell-based"}, "NCI-H460 [12]": {"tested_on": "NCI-H460", "test": "Induction of apoptosis in human NCI-H460 cells assessed as late apoptotic cells at 30 uM measured after 48 hrs by annexin V-FITC/PI staining based flow cytometry analysis (reference value: 5.41%)", "assay_type": "functional"}, "A549 [13]": {"tested_on": "A549", "test": "Induction of apoptosis in human A549 cells assessed as necrotic cells at 30 uM measured after 48 hrs by annexin V-FITC/PI staining based flow cytometry analysis (reference value: 4.03%)", "assay_type": "functional"}, "NCI-H460 [14]": {"tested_on": "NCI-H460", "test": "Induction of cell cycle arrest in human NCI-H460 cells assessed as accumulation of cells as G1 phase at 10 uM measured after 24 hrs by propidium iodide staining based flow cytometry analysis (Rvb =84.54%)", "assay_type": "functional"}, "NCI-H460 [15]": {"tested_on": "NCI-H460", "test": "Upregulation of Bax/Bcl2 ratio in human NCI-H460 cells at 10 to 30 uM by Western blot analysis", "assay_type": "functional, cell-based", "details": "dose 10-30 µM"}, "NCI-H460 [16]": {"tested_on": "NCI-H460", "test": "Downregulation of P38 phosphorylation expression in human NCI-H460 cells at 10 to 30 uM by Western blot analysis", "assay_type": "functional, cell-based", "details": "dose 10-30 µM"}, "A549 [17]": {"tested_on": "A549", "test": "Inhibition of colony formation in human A549 cells at 10 uM measured after 48 hrs by giemsa staining based analysis relative to control", "assay_type": "functional"}, "NCI-H460 [18]": {"tested_on": "NCI-H460", "test": "Downregulation of ERK phosphorylation expression in human NCI-H460 cells at 10 to 30 uM by Western blot analysis", "assay_type": "functional, cell-based", "details": "dose 10-30 µM"}, "Lewis lung carcinoma [19]": {"tested_on": "Lewis lung carcinoma", "test": "Antitumor activity against mouse Lewis lung carcinoma cell line xenografted in C57BL/6 mouse model assessed as increase in Bax/Bcl2 ratio at 10 to 20 mg/kg by Western blot analysis", "assay_type": "functional, organism-based", "details": "dose 10-20 mg/kg"}, "A549 [20]": {"tested_on": "A549", "test": "Inhibition of colony formation in human A549 cells at 30 uM measured after 48 hrs by giemsa staining based analysis relative to control", "assay_type": "functional"}, "A549 [21]": {"tested_on": "A549", "test": "Induction of apoptosis in human A549 cells assessed as necrotic cells at 10 uM measured after 48 hrs by annexin V-FITC/PI staining based flow cytometry analysis (reference value: 4.03%)", "assay_type": "functional"}, "Lewis lung carcinoma [22]": {"tested_on": "Lewis lung carcinoma", "test": "Antitumor activity against mouse Lewis lung carcinoma cell line xenografted in C57BL/6 mouse model assessed as reduction in tumor volume at 10 to 20 mg/kg, ip measured every three days for 15 days by vernier caliper analysis", "assay_type": "functional, organism-based", "details": "dose 10-20 mg/kg, time 15.0 day"}, "A549 [23]": {"tested_on": "A549", "test": "Induction of cell cycle arrest in human A549 cells assessed as accumulation of cells as G2 phase at 30 uM measured after 24 hrs by propidium iodide staining based flow cytometry analysis (reference value: 8.69%)", "assay_type": "functional"}, "BEAS-2B": {"tested_on": "BEAS-2B", "test": "Cytotoxicity against human BEAS-2B cells assessed as reduction in cell viability at 3 to 300 uM measured after 48 hrs by MTT assay", "assay_type": "toxicity, cell-based", "details": "dose 3-300 µM"}, "A549 [24]": {"tested_on": "A549", "test": "Downregulation of ERK phosphorylation expression in human A549 cells at 10 to 30 uM by Western blot analysis", "assay_type": "functional, cell-based", "details": "dose 10-30 µM"}, "NCI-H460 [25]": {"tested_on": "NCI-H460", "test": "Downregulation of CDK1 protein expression in human NCI-H460 cells at 30 uM by Western blot analysis", "assay_type": "functional, cell-based"}, "Lewis lung carcinoma [26]": {"tested_on": "Lewis lung carcinoma", "test": "Antitumor activity against mouse Lewis lung carcinoma cell line xenografted in C57BL/6 mouse model assessed as decrease in bcl-2 protein expression at 10 to 20 mg/kg by Western blot analysis", "assay_type": "functional, organism-based", "details": "dose 10-20 mg/kg"}, "A549 [27]": {"tested_on": "A549", "test": "Induction of cell cycle arrest in human A549 cells assessed as accumulation of cells as G1 phase at 30 uM measured after 24 hrs by propidium iodide staining based flow cytometry analysis (reference value: 71.74%)", "assay_type": "functional"}, "A549 [28]": {"tested_on": "A549", "test": "Inhibition of cell migration in human A549 cells at 10 to 30 uM measured after 24 hrs by wound healing assay relative to control", "assay_type": "functional", "details": "dose 10-30 µM"}, "A549 [29]": {"tested_on": "A549", "test": "Downregulation of CDK1 protein expression in human A549 cells at 10 to 30 uM by Western blot analysis", "assay_type": "functional, cell-based", "details": "dose 10-30 µM"}, "NCI-H460 [30]": {"tested_on": "NCI-H460", "test": "Induction of apoptosis in human NCI-H460 cells assessed as viable cells at 30 uM measured after 48 hrs by annexin V-FITC/PI staining based flow cytometry analysis (reference value: 91.81%)", "assay_type": "functional", "details": "read-out: Activity"}},
  "note": "Calls of active or inactive are those of the source. The calls are words filed in the database; no cut-off is given here.",
  "data": [
    {"smiles": "CC(C(=O)NCCC[Se]C(F)(F)F)c1ccc(-c2ccccc2)c(F)c1", "note": "(configuration not stated)", "values": [
      {"measurement": "Activity", "setting": "A549 [1]", "value": "Active"},
      {"measurement": "Activity", "setting": "A549 [2]", "value": 76.88, "unit": "%"},
      {"measurement": "viability at 10 µM", "setting": "A549 [3]", "value": 74.6, "unit": "%"},
      {"measurement": "Activity", "setting": "NCI-H460 [4]", "value": 5.73, "unit": "%"},
      {"measurement": "Activity", "setting": "A549 [5]", "value": "Active"},
      {"measurement": "Activity", "setting": "A549 [6]", "value": 9.29, "unit": "%"},
      {"measurement": "Activity", "setting": "A549 [7]", "value": 52.63, "unit": "%"},
      {"measurement": "Activity", "setting": "NCI-H460 [8]", "value": 6.76, "unit": "%"},
      {"measurement": "Activity", "setting": "Lewis lung carcinoma [9]", "value": "Active"},
      {"measurement": "viability at 10 µM", "setting": "NCI-H460 [10]", "value": 91, "unit": "%"},
      {"measurement": "IC50", "setting": "A549 [11]; A549, 48 h", "value": 41.9, "unit": "µM"},
      {"measurement": "Activity", "setting": "A549 [11]; dose 3-300 µM", "value": "Dose-Dependent Effect"},
      {"measurement": "Activity", "setting": "NCI-H460 [12]", "value": 17.28, "unit": "%"},
      {"measurement": "Activity", "setting": "A549 [13]", "value": 8.86, "unit": "%"},
      {"measurement": "Activity", "setting": "NCI-H460 [14]", "value": 78.71, "unit": "%"},
      {"measurement": "Activity", "setting": "NCI-H460 [15]", "value": "Active"},
      {"measurement": "Activity", "setting": "NCI-H460 [16]", "value": "Active"},
      {"measurement": "inhibition at 10 µM", "setting": "A549 [17]", "value": 45, "unit": "%"},
      {"measurement": "Activity", "setting": "NCI-H460 [18]", "value": "Active"},
      {"measurement": "Activity", "setting": "Lewis lung carcinoma [19]", "value": "Active"},
      {"measurement": "inhibition at 30 µM", "setting": "A549 [20]", "value": 89, "unit": "%"},
      {"measurement": "Activity", "setting": "A549 [21]", "value": 3.99, "unit": "%"},
      {"measurement": "Activity", "setting": "Lewis lung carcinoma [22]", "value": "Active"},
      {"measurement": "Activity", "setting": "A549 [23]", "value": 39.92, "unit": "%"},
      {"measurement": "Activity", "setting": "BEAS-2B", "value": "Toxic"},
      {"measurement": "Activity", "setting": "A549 [24]", "value": "Active"},
      {"measurement": "Activity", "setting": "NCI-H460 [25]", "value": "Active"},
      {"measurement": "Activity", "setting": "Lewis lung carcinoma [26]", "value": "Active"},
      {"measurement": "Activity", "setting": "A549 [27]", "value": 7.45, "unit": "%"},
      {"measurement": "inhibition (INH)", "setting": "A549 [28]", "value": 62.9, "unit": "%"},
      {"measurement": "Activity", "setting": "A549 [29]", "value": "Active"},
      {"measurement": "viability at 30 µM", "setting": "NCI-H460 [30]", "value": 74, "unit": "%"}
    ]}
  ]
}
